Calls of active or inactive are those of the source.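 How the source made its calls: active means mean IC50 below 20 µM in each of the two panels, so potent in both; inactive means the rest.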
Biological target: Neuropilin-1 (Homo sapiens) (UniProt O14786)
Test: NRP-1 b1b2 CendR peptide binding inhibitors, dose response, biochemical, FP and AlphaScreen panel (AID 651650)
Settings: NRP-1 b1b2 / RPARPAR peptide binding, FP or AlphaScreen
[1] = AlphaScreen, run 1, individual panel run IC50
[2] = FP, run 1, individual panel run IC50
[3] = FP, run 2, individual panel run IC50

Neuropilin-1 (Homo sapiens), sequence (O14786 whole entry, looked up): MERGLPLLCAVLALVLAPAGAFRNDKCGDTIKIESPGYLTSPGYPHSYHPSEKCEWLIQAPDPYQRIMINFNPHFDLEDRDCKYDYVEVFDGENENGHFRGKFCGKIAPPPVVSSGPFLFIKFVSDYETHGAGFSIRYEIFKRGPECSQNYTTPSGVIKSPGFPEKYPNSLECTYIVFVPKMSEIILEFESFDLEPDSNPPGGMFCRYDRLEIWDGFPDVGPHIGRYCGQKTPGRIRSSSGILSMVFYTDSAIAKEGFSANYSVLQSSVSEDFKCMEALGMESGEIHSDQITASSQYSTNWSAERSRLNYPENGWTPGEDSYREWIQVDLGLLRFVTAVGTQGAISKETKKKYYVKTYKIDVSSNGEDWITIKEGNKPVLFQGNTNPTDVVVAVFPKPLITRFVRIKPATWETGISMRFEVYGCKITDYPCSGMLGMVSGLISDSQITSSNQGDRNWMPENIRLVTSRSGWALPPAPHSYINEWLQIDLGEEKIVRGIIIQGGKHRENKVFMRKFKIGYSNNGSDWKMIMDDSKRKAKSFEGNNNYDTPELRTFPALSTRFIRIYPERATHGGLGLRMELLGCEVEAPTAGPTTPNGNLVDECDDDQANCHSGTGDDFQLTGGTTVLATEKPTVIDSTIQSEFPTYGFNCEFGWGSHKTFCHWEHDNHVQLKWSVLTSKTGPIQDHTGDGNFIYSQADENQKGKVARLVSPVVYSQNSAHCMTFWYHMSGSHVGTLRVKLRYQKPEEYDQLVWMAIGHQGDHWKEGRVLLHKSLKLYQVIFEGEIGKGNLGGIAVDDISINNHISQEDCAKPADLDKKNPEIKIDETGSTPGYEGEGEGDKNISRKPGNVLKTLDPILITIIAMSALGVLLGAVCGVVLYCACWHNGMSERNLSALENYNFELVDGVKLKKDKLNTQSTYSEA

SMILES | IC50 (AlphaScreen, mean of runs) | IC50 [1] [µM] | IC50 (FP, mean of runs) | IC50 [2] [µM] | IC50 [3] [µM]
CCOc1ccc(C2CC(c3ccc(CC)cc3)n3nc(N)nc3N2)cc1 (stereo not given) | > 100 µM (inactive) | > 100 | > 95 µM (inactive) | > 95 | > 95
CC1(C)S[C@@H]2[C@H](NC(=O)COc3ccccc3)C(=O)N2C1C(=O)OCc1ccccc1 (stereo not given in full) | > 100 µM (inactive) | > 100 | > 95 µM (inactive) | > 95 | > 95
Cc1cc2cc(CNC(=O)c3ccc(S(=O)(=O)N4CCOCC4)cc3)ccc2n1C | > 100 µM (inactive) | > 100 | > 95 µM (inactive) | > 95 | > 95
Cc1nnc(SC(C)C(=O)Nc2ccc(S(=O)(=O)NC3CCCCC3)cc2)s1 (stereo not given) | > 100 µM (inactive) | > 100 | > 95 µM (inactive) | > 95 | > 95
O=C(O)CCSc1nnc(COc2cccc3cccnc23)n1-c1ccccc1 | > 100 µM (inactive) | > 100 | > 95 µM (inactive) | > 95 | > 95
O=C(CSc1nc2ccccc2c(=O)n1-c1ccc(F)cc1F)Nc1ccc2c(c1)CCC2 | > 100 µM (inactive) | > 100 | > 95 µM (inactive) | > 95 | > 95
Cc1cccc(-c2noc(CSc3ccccc3)n2)c1 | > 100 µM (inactive) | > 100 | > 95 µM (inactive) | > 95 | > 95
COc1ccc(CCNC(=O)c2ccc(Cl)c(S(=O)(=O)N(C)c3ccccc3)c2)cc1 | > 100 µM (inactive) | > 100 | > 95 µM (inactive) | > 95 | > 95
Clc1nc(-c2ccccn2)nc2scc(-c3ccccc3)c12 | > 100 µM (inactive) | > 100 | > 95 µM (inactive) | > 95 | > 95
O=C(CCCNC(=O)/C(=C\c1ccc(F)cc1)NC(=O)c1ccccc1)OCc1ccccc1 | > 100 µM (inactive) | > 100 | > 95 µM (inactive) | > 95 | > 95
COc1ccc(/C=N/NC(=O)c2ccccc2Cl)cc1CSc1nc2ccccc2s1 | > 100 µM (inactive) | > 100 | > 95 µM (inactive) | > 95 | > 95
O=C1CCC[C@@H]2Cc3nc4cc5c(cc4cc3[C@@H]3CCN1[C@H]23)OCO5 | > 100 µM (inactive) | > 100 | > 95 µM (inactive) | > 95 | > 95
c1ccc2c3n(nc2c1)CCCO3 | > 100 µM (inactive) | > 100 | > 95 µM (inactive) | > 95 | > 95
CC(Nc1nc(-c2ccc(F)cc2)cs1)c1nc2cc(C(F)(F)F)ccc2n1CCOCCO (stereo not given) | > 100 µM (inactive) | > 100 | > 95 µM (inactive) | > 95 | > 95
COC(=O)c1ccc(Cn2nnc3c(=O)[nH]c(C4CCCN(S(=O)(=O)c5cccc(Cl)c5)C4)nc32)cc1 (stereo not given) | > 100 µM (inactive) | > 100 | > 95 µM (inactive) | > 95 | > 95
CC(C)Oc1ccc(F)cc1-c1cc(C(=O)NCc2ccc(F)cc2)[nH]n1 | > 100 µM (inactive) | > 100 | > 95 µM (inactive) | > 95 | > 95
CC(NCCOCCOc1ccccc1)c1ccccc1 (stereo not given) | > 100 µM (inactive) | > 100 | > 95 µM (inactive) | > 95 | > 95
CCOc1ccc(-n2c(Cc3cc(=O)[nH]c(=O)[nH]3)nnc2SC(C)C)cc1 | > 100 µM (inactive) | > 100 | > 95 µM (inactive) | > 95 | > 95
CCC1=C(OC(=O)N(CC)CC)N2C(=O)OC(=NCC(=O)OC)[C@]2(C)[C@H]2C1=CC[C@H]1C(=O)N(CC)C(=O)[C@H]12 | > 100 µM (inactive) | > 100 | > 95 µM (inactive) | > 95 | > 95
COc1ccc(C(=O)N2CCC(C(=O)NCc3ccccn3)CC2)cc1 | > 100 µM (inactive) | > 100 | > 95 µM (inactive) | > 95 | > 95
O=C(Nc1ccccc1N1CCOCC1)c1ccc(N2CCCC2=O)cc1 | > 100 µM (inactive) | > 100 | > 95 µM (inactive) | > 95 | > 95
COc1ccccc1N1CCN(C2CCCN(C(=O)Cn3cccn3)C2)CC1 (stereo not given) | > 100 µM (inactive) | > 100 | > 95 µM (inactive) | > 95 | > 95
COc1ccc(C(=O)N[C@H](C(=O)Nc2nc3c(s2)CCCC3)C(C)C)cc1 | > 100 µM (inactive) | > 100 | > 95 µM (inactive) | > 95 | > 95
Cn1c(=O)c2[nH]c(COc3ccccc3)nc2n(C)c1=O | > 100 µM (inactive) | > 100 | > 95 µM (inactive) | > 95 | > 95
O=C(O)CCCC(=O)N1CCc2cc(S(=O)(=O)N3CCc4ccccc43)ccc21 | > 100 µM (inactive) | > 100 | > 95 µM (inactive) | > 95 | > 95
CN(c1ccccc1)S(=O)(=O)c1cccc(NC(=O)CSc2nncn2C)c1 | > 100 µM (inactive) | > 100 | > 95 µM (inactive) | > 95 | > 95
Cc1ccc(NNS(=O)(=O)c2ccc(C)cc2)cc1 | > 100 µM (inactive) | > 100 | > 95 µM (inactive) | > 95 | > 95
CCC1=C(OC(=O)N(CC)CC)N2C(=O)OC(=NCCOC)[C@]2(Cc2ccccc2)[C@H]2C1=CC[C@H]1C(=O)N(CC(=O)OC)C(=O)[C@H]12 | > 100 µM (inactive) | > 100 | > 95 µM (inactive) | > 95 | > 95
COC(=O)C1N[C@@H]([C@@H](NC(=O)COc2ccccc2)C(=O)NCc2ccccc2)SC1(C)C (stereo not given in full) | > 100 µM (inactive) | > 100 | > 95 µM (inactive) | > 95 | > 95
CSc1cccc(CN2CCN(Cc3ccccc3)C(CCO)C2)c1 (stereo not given) | > 100 µM (inactive) | > 100 | > 95 µM (inactive) | > 95 | > 95

Now those with a lower IC50 [1], led by results:

IC50 (AlphaScreen, mean of runs) | IC50 [1] [µM] | IC50 (FP, mean of runs) | IC50 [2] [µM] | IC50 [3] [µM] | SMILES
inactive | 96.3 | > 95 µM (inactive) | > 95 | > 95 | COc1cc(CN2C[C@@H](CO)O[C@@H](n3cnc4c(N5CCN(c6ccccc6)CC5)ncnc43)C2)cc(OC)c1OC
inactive | 87.9 | > 95 µM (inactive) | > 95 | > 95 | CC(=O)OC[C@@H]1CN(Cc2cccc(C(F)(F)F)c2)C[C@H](n2cnc3c(NCc4ccco4)ncnc32)O1
inactive | 73.1 | > 95 µM (inactive) | > 95 | > 95 | Cc1nc(Nc2ccc(S(N)(=O)=O)cc2)oc1C
inactive | 69.5 | > 95 µM (inactive) | > 95 | > 95 | COC(=O)N[C@@H]1C[C@H]2[C@@H]3CC[C@H]4C[C@@H](OC)CC[C@]4(C)[C@H]3CC[C@]12C
inactive | 57.6 | > 95 µM (inactive) | > 95 | > 95 | CC(=O)Nc1ccc2nc3c(=O)n(C)c(=O)n(C)c3nc2c1
inactive | 55.3 | > 95 µM (inactive) | > 95 | > 95 | COc1ccc(OCC(=O)O/N=C(\N)Cc2ccc(Cl)cc2Cl)cc1
inactive | 46.6 | > 95 µM (inactive) | > 95 | > 95 | Cn1c(SCc2nc3ccccc3s2)nnc1-c1cccs1
inactive | 40.2 | > 95 µM (inactive) | > 95 | > 95 | CCc1cccc(NC(=O)CCc2c(C)nn(-c3ccc(N4CCOCC4)nn3)c2C)c1
17.5 µM | 17.5 | > 95 µM (inactive) | > 95 | > 95 | CCCS(=O)(=O)N1CCC(C(=O)NC2CCCC(C)C2C)CC1 (stereo not given)
10.4 µM | 10.4 | 19.9 µM | 17.9 | 21.8 | CCOC(=O)c1cnc(-c2ccccc2)nc1Oc1ccc(OC)cc1
7.12 µM | 7.12 | > 95 µM (inactive) | > 95 | > 95 | O=C(Cn1cccc1C(=O)c1ccccc1)NCCC1=CCCCC1
6.67 µM | 6.67 | inactive | 32.6 | 35 | Cc1ccccc1NC(=S)NC(=O)COc1ccccc1C
4.28 µM | 4.28 | > 95 µM (inactive) | > 95 | > 95 | Nc1cc(S(=O)(=O)O)cc([N+](=O)[O-])c1O
0.965 µM | 0.965 | > 95 µM (inactive) | > 95 | > 95 | O=C(c1ccco1)N1CCN(C(=O)c2ccccc2OC(=O)C23CC4CC(CC(C4)C2)C3)CC1

— PubChem BioAssay AID651650 (Sanford-Burnham Center for Chemical Genomics, 2012)
